Reference: US20210275547A1, “Methods of Modulating Activity of a Cyclic Dinucleotide (CDN) with a CDN Transporter-Modulating Agent” (THE REGENTS OF THE UNIVERSITY OF CALIFORNIA, priority 2018, published 2021)
Entries after “also recorded” stand apart in the source; their conditions may differ.

Assays:
SLC19A1 [1] = biological target: T1, SLC19A1 (Homo sapiens, UniProt P41440); assay: Reporter response to CDNs in THP-1 cells with SLC19A1 knocked down or overexpressed; details: SLC19A1 knockdown vs control, synthetic CDN 1.7 μg/ml, hIFNβ 100 ng/ml, 20 h
T1 sequence (P41440 1-591): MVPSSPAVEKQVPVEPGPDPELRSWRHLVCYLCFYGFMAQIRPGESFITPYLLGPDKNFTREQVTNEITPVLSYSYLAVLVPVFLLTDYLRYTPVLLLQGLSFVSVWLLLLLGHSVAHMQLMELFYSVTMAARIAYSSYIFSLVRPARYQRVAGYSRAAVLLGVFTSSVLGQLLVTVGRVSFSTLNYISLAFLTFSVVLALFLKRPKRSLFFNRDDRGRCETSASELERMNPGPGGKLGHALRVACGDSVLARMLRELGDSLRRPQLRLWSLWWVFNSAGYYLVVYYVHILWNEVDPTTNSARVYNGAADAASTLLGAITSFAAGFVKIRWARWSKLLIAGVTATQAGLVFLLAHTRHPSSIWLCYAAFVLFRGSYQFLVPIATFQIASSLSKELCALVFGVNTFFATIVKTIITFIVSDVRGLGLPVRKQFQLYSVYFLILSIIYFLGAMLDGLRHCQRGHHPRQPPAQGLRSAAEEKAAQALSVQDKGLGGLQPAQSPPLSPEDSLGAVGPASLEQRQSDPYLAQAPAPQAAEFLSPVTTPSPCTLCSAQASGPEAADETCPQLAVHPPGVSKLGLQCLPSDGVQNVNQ
Description: To test the role of SLC19A1 in the response to extracellular CDNs, THP-1 cell lines were created in which SLC19A1 was knocked-down or knocked-out, using conventional methods. SLC19A1 knockdown was confirmed and cells were stimulated with synthetic CDN or hIFNβ.
Panel A) Flow cytometry-generated dot plots of THP-1 cells expressing an ISRE-driven tdTomato reporter. Reporter expression was induced upon stimulation with the synthetic CDN (1.7 μg/ml) for 20 h. Panel B) Validation of targets identified by a genome-wide screen using THP-1 cells described in (Panel A) using conventional methods. Cells expressed a control vector or IRF3 or SLC19A1 gRNA. Cells were stimulated with (Panel B) synthetic CDN (1.7 μg/ml) or (Panel D) human interferon-beta (hIFNβ) (100 ng/ml) for 20 h. Cells were analyzed for reporter by flow cytometry as in (A). E) Indicated cell lines expressing SLC19A1 or vector only were stimulated with synthetic CDN (1.7 μg/ml). Reporter expression was measured 20 h after stimulation.

SLC19A1 [2] = biological target: T1, SLC19A1; details: at high doses; cited from earlier work
[3] = system: THP-1 cells expressing an ISRE-driven tdTomato reporter; assay: Synthetic CDN or hIFNβ stimulation of tdTomato reporter THP-1 cells in the presence of sulfasalazine; format: cell-based, human
Excerpt: To identify genes encoding molecules involved in this process, a reporter system was created to detect STING activation in response to extracellular CDNs, in order to perform a genetic screen. The reporter was composed of an Interferon Stimulatory Response Element (ISRE) cassette driving the expression of the fluorescent protein tdTomato. […] Subsequently, THP-1 cells containing the reporter were transduced with a genome-wide library of guide RNAs (gRNAs), which suppress expression of target genes. The library targeted 20,000 genes within the human genome. The gRNA library-expressing THP-1 cells were stimulated with synthetic CDN, and the cells were subsequently sorted into two populations based on either low (hyporesponsive) or high (hyper-responsive) levels of tdTomato reporter expression. These populations were sequenced to reveal the RNA targets. As expected, gRNAs targeting components of the STING pathway, including IRF3 and STING itself, were enriched in the hyporesponsive cells and depleted in the hyper-responsive cells, corroborating the success of the screening procedure. Other “hits” in the screen were examined for their role in CDN transport.
The transport activity of folate by SLC19A1 can be altered by a variety of organic and inorganic anions, including the compound sulfasalazine (Jansen et al. “Sulfasalazine is a potent inhibitor of the reduced folate carrier: Implications for combination therapies with methotrexate in rheumatoid arthritis.” Arthritis Rheum. 50, 2130-2139 (2004); Goldman, “The characteristics of the membrane transport of amethopterin and the naturally occurring folates.” Ann. N. Y. Acad. Sci. 186, 400-22 (1971)). […] We therefore tested whether sulfasalazine blocks the response of cells to CDNs.
FIG. 2. Panel A) THP-1 cells were stimulated with synthetic CDN (2.5 μg/ml) in the presence of high concentrations of sulfasalazine (SSZ) or vehicle. Reporter expression was measured 20 h post stimulation. […] Reporter expression was measured 20 h post stimulation.

| SMILES | effect of knocking down SLC19A1 expression on the response to the stimulant (SLC19A1 [1]) | transport of folates and folate-derivatives by SLC19A1 (SLC19A1 [2]) | response of the cells to hIFNβ ([3]; either low or high sulfasalazine concentrations) | response to synthetic CDN stimulation (reporter expression) ([3]; high concentration (1000 μM) of sulfasalazine, synthetic CDN 2.5 μg/ml, 20 h post stimulation) | responsiveness of cells to synthetic CDN compared to untreated cells (reporter expression) ([3]; low concentrations of sulfasalazine (e.g. 100 μM), synthetic CDN 1.25 μg/ml, 20 h post stimulation) |
| --- | --- | --- | --- | --- | --- |
| Nc1ncnc2c1ncn2[C@@H]1O[C@@H]2COP(=O)(O)O[C@H]3[C@@H](O)[C@H](n4cnc5c(N)ncnc54)O[C@@H]3COP(=O)(O)O[C@H]2[C@H]1O [CDA, cyclic di-AMP] | reduced the response |  |  |  |  |
| O=C(O)c1cc(/N=N/c2ccc(S(=O)(=O)Nc3ccccn3)cc2)ccc1O [sulfasalazine] |  | non-competitively inhibits | only marginally affected | complete blocking; also recorded: almost completely blocked | significantly increased |
